According to patent US20230295234A1, “ANTIMICROBIAL PEPTIDOMIMETICS” (SPEXIS AG, priority 2020, published 2023):
Bridge positions count the residues as written; N and C are the ends. Square brackets hold non-standard residues; d marks the D form. Peptide text beside a SMILES is read from it. Pro(4R-NH2) = N[C@H]1CN[C@H](C(=O)O)C1; Gly(N-2-aminoethyl) = NCCNCC(=O)O; Cha = N[C@@H](CC1CCCCC1)C(=O)O; Gly(N(CH2)3NH2) = NCCCNCC(=O)O; Pen = CC(C)(S)[C@H](N)C(=O)O; dDab = NCC[C@@H](N)C(=O)O; Nle = CCCC[C@H](N)C(=O)O; Orn = NCCC[C@H](N)C(=O)O; Dab = NCC[C@H](N)C(=O)O

Key:
[1] = test system: Escherichia coli ATCC 25922; conditions: ATCC 25922
Procedure: (§1) Lyophilized peptides were weighed on a Microbalance (Mettler MT5) and dissolved in sterile water to a final concentration of 1 mg/mL. Stock solutions were kept at +4° C., light protected.
(§2) Colonies of the microorganisms were diluted in saline (0.85%, NaCl) and adjusted using a McFarland reader (bioMérieux SA, Marcy-l'Etoile, France) to 0.5 McFarland standard. Subsequently, the bacterial suspension was diluted in Mueller-Hinton II (MHII, cation adjusted) broth to give approximately 5×10^5 colony forming units (CFU/mL).
(§3) 10^6 colony forming units (CFU)/mL. Aliquots (90 μl) of inoculate were added to 10 μl of water+P-80 (Polysorbate 80, 0.002% final concentration) containing the peptide in serial two-fold dilutions at 10 fold final concentration. The following microorganisms were used to determine antibiotic selectivity of the peptides: Escherichia coli ATCC 25922, Escherichia coli MCR-1 Af 45 and Klebsiella pneumoniae SSI3010.

[2] = test system: Escherichia coli MCR-1 Af 45; conditions: MCR-1 Af 45
Procedure: as §1, §2, §3

[3] = test system: Klebsiella pneumoniae SSI3010; conditions: SSI3010
Procedure: as §1, §2, §3

[4] = test system: human red blood cells (hRBC); test: Hemolysis of human red blood cells; assay type: cell-based; conditions: red cells of human, 1 h
Procedure: Lyophilized peptides were weighed on a Microbalance (Mettler MT5) and dissolved in sterile water to a final concentration of 1 mg/mL. Stock solutions were kept at +4° C., light protected. The peptides were tested for their hemolytic activity against human red blood cells (hRBC). Fresh hRBC were washed three times with phosphate buffered saline (PBS) and centrifuged for 5 min at 3000×g. Compounds (200 μg/mL) were incubated with 20% hRBC (v/v) for 1 h at 37° C. and shaking at 300 rpm. […] The samples were centrifuged, the supernatants were 8-fold diluted in PBS buffer and the optical densities (OD) were measured at 540 nm. […] Percent hemolysis was calculated as follows: (OD540peptide/OD540H2O)×100%.

SMILES | Escherichia coli ATCC 25922 MIC [1] | Escherichia coli MCR-1 Af 45 MIC [2] | Klebsiella pneumoniae SSI3010 MIC [3] | Hemolysis at 0.2 g/L [4]
CCCC[C@H](NC(=O)[C@H](CCCNC(=N)N)NC(=O)[C@H](CCN)NC(=O)[C@@H]1CSSC(C)(C)[C@H](NC(=O)[C@H](Cc2ccc(O)cc2)NC(=O)[C@@H](NC(=O)[C@@H](NC(=O)CN(CCN)C(=O)[C@@H](NC(=O)CNCCN)C(C)C)[C@@H](C)CC)[C@@H](C)CC)C(=O)N[C@@H](CC(N)=O)C(=O)N[C@@H](CCCNC(=N)N)C(=O)N[C@@H](CCN)C(=O)N[C@@H]([C@@H](C)O)C(=O)N[C@H](CCN)C(=O)N[C@@H](CCCCN)C(=O)N1)C(=O)O [Example 13, Ndab-Val-Ndab-Ile-Ile-Tyr-Pen-Asn-Arg-Dab-Thr-^DDab-Lys-Cys-Dab-Arg-Nle] (H-[Gly(N-2-aminoethyl)]V[Gly(N-2-aminoethyl)]IIY[Pen]NR[Dab]T[dDab]KC[Dab]R[Nle]-OH; disulfide 7-14) | 0.125 mg/L | 0.125 mg/L | 0.25 mg/L | 0%
CCCC[C@H](NC(=O)[C@H](CCCNC(=N)N)NC(=O)[C@H](CCN)NC(=O)[C@@H]1CSSC(C)(C)[C@H](NC(=O)[C@H](Cc2ccc(O)cc2)NC(=O)[C@@H](NC(=O)[C@@H](NC(=O)CN(CCCN)C(=O)[C@@H](NC(=O)CNCCCN)C(C)C)[C@@H](C)CC)[C@@H](C)CC)C(=O)N[C@@H](CC(N)=O)C(=O)N[C@@H](CCCNC(=N)N)C(=O)N[C@@H](CCN)C(=O)N[C@@H]([C@@H](C)O)C(=O)N[C@H](CCN)C(=O)N[C@@H](CCCCN)C(=O)N1)C(=O)O [Example 14, Norn-Val-Norn-Ile-Ile-Tyr-Pen-Asn-Arg-Dab-Thr-^DDab-Lys-Cys-Dab-Arg-Nle] (H-[Gly(N(CH2)3NH2)]V[Gly(N(CH2)3NH2)]IIY[Pen]NR[Dab]T[dDab]KC[Dab]R[Nle]-OH; disulfide 7-14) | 0.25 mg/L | 0.25 mg/L | 0.25 mg/L | 0%
CCCC[C@H](NC(=O)[C@H](CCCNC(=N)N)NC(=O)[C@H](CCCN)NC(=O)[C@@H]1CSSC(C)(C)[C@H](NC(=O)[C@H](Cc2ccc(O)cc2)NC(=O)[C@@H](NC(=O)[C@@H](NC(=O)CN(CCN)C(=O)[C@@H](NC(=O)CNCCN)C(C)C)[C@@H](C)CC)[C@@H](C)CC)C(=O)N[C@@H](CC(N)=O)C(=O)N[C@@H](CCCNC(=N)N)C(=O)N[C@@H](CCN)C(=O)N[C@@H]([C@@H](C)O)C(=O)N[C@H](CCN)C(=O)N[C@@H](CCCCN)C(=O)N1)C(=O)O [Example 15, Ndab-Val-Ndab-Ile-Ile-Tyr-Pen-Asn-Arg-Dab-Thr-^DDab-Lys-Cys-Orn-Arg-Nle] (H-[Gly(N-2-aminoethyl)]V[Gly(N-2-aminoethyl)]IIY[Pen]NR[Dab]T[dDab]KC[Orn]R[Nle]-OH; disulfide 7-14) | 0.125 mg/L | 0.125 mg/L | 0.25 mg/L | 0%
CCCC[C@H](NC(=O)[C@H](CCCNC(=N)N)NC(=O)[C@H](CCCN)NC(=O)[C@@H]1CSSC(C)(C)[C@H](NC(=O)[C@H](Cc2ccc(O)cc2)NC(=O)[C@@H](NC(=O)[C@@H](NC(=O)CN(CCN)C(=O)[C@@H](NC(=O)CNCCN)C(C)C)[C@@H](C)CC)[C@@H](C)CC)C(=O)N[C@@H](CC(N)=O)C(=O)N[C@@H](CCCNC(=N)N)C(=O)N[C@@H](CCN)C(=O)N[C@@H]([C@@H](C)O)C(=O)N[C@H](CCN)C(=O)N[C@@H](CCCN)C(=O)N1)C(=O)O [Example 16, Ndab-Val-Ndab-Ile-Ile-Tyr-Pen-Asn-Arg-Dab-Thr-^DDab-Orn-Cys-Orn-Arg-Nle] (H-[Gly(N-2-aminoethyl)]V[Gly(N-2-aminoethyl)]IIY[Pen]NR[Dab]T[dDab][Orn]C[Orn]R[Nle]-OH; disulfide 7-14) | 0.125 mg/L | 0.125 mg/L | 0.25 mg/L | 0%
CC[C@H](C)[C@H](NC(=O)[C@@H](NC(=O)[C@@H]1C[C@@H](N)CN1C(=O)[C@@H](NC(=O)[C@@H]1CCCN1)C(C)C)[C@@H](C)CC)C(=O)N[C@@H](Cc1ccc(O)cc1)C(=O)N[C@@H]1C(=O)N[C@@H](CC(N)=O)C(=O)N[C@@H](CCCNC(=N)N)C(=O)N[C@@H](CCN)C(=O)N[C@@H]([C@@H](C)O)C(=O)N[C@H](CCN)C(=O)N[C@@H](CCCCN)C(=O)N[C@H](C(=O)N[C@@H](CCC(N)=O)C(=O)N[C@@H](CCCNC(=N)N)C(=O)N[C@@H](CC2CCCCC2)C(=O)O)CSSC1(C)C [Example 17, Pro-Val-Pro((4R)NH2)-Ile-Ile-Tyr-Pen-Asn-Arg-Dab-Thr-^DDab-Lys-Cys-Gln-Arg-Cha] (HELM PEPTIDE1{P.V.[N[C@@H]1C[C@@H](C(=O)[*:2])N([*:1])C1].I.I.Y.[Pen].N.R.[Dab].T.[NCC[C@@H](N[*:1])C(=O)[*:2]].K.C.Q.R.[Cha]}$PEPTIDE1,PEPTIDE1,7:R3-14:R3$$$V2.0) | 0.125 mg/L | 0.125 mg/L | 0.25 mg/L | 0%
CC[C@H](C)[C@H](NC(=O)[C@@H](NC(=O)[C@@H]1C[C@@H](N)CN1C(=O)[C@@H](NC(=O)[C@@H]1C[C@@H](N)CN1)C(C)C)[C@@H](C)CC)C(=O)N[C@@H](Cc1ccc(O)cc1)C(=O)N[C@@H]1C(=O)N[C@@H](CC(N)=O)C(=O)N[C@@H](CCCNC(=N)N)C(=O)N[C@@H](CCN)C(=O)N[C@@H]([C@@H](C)O)C(=O)N[C@H](CCN)C(=O)N[C@@H](CCCCN)C(=O)N[C@H](C(=O)N[C@@H](CCC(N)=O)C(=O)N[C@@H](CCCNC(=N)N)C(=O)N[C@@H](CC2CCCCC2)C(=O)O)CSSC1(C)C [Example 18, Pro((4R)NH2)-Val-Pro((4R)NH2)-Ile-Ile-Tyr-Pen-Asn-Arg-Dab-Thr-^DDab-Lys-Cys-Gln-Arg-Cha] (H-[Pro(4R-NH2)]V[Pro(4R-NH2)]IIY[Pen]NR[Dab]T[dDab]KCQR[Cha]-OH; disulfide 7-14) | 0.25 mg/L | 0.125 mg/L | 0.25 mg/L | 0%
CC[C@H](C)[C@H](NC(=O)[C@@H](NC(=O)[C@@H]1C[C@@H](N)CN1C(=O)[C@@H](NC(=O)[C@@H]1CCCN1)C(C)C)[C@@H](C)CC)C(=O)N[C@@H](Cc1ccc(O)cc1)C(=O)N[C@@H]1C(=O)N[C@@H](CC(N)=O)C(=O)N[C@@H](CCCNC(=N)N)C(=O)N[C@@H](CCN)C(=O)N[C@@H]([C@@H](C)O)C(=O)N[C@H](CCN)C(=O)N[C@@H](CCCCN)C(=O)N[C@H](C(=O)N[C@@H](CCN)C(=O)N[C@@H](CCCNC(=N)N)C(=O)N[C@@H](CC2CCCCC2)C(=O)O)CSSC1(C)C [Example 19, Pro-Val-Pro((4R)NH2)-Ile-Ile-Tyr-Pen-Asn-Arg-Dab-Thr-^DDab-Lys-Cys-Dab-Arg-Cha] (HELM PEPTIDE1{P.V.[N[C@@H]1C[C@@H](C(=O)[*:2])N([*:1])C1].I.I.Y.[Pen].N.R.[Dab].T.[NCC[C@@H](N[*:1])C(=O)[*:2]].K.C.[Dab].R.[Cha]}$PEPTIDE1,PEPTIDE1,7:R3-14:R3$$$V2.0) | 0.0625 mg/L | ≤0.03125 mg/L | 0.0625 mg/L | 0%
CC[C@H](C)[C@H](NC(=O)[C@@H](NC(=O)[C@@H]1C[C@@H](N)CN1C(=O)[C@@H](NC(=O)[C@@H]1C[C@@H](N)CN1)C(C)C)[C@@H](C)CC)C(=O)N[C@@H](Cc1ccc(O)cc1)C(=O)N[C@@H]1C(=O)N[C@@H](CC(N)=O)C(=O)N[C@@H](CCCNC(=N)N)C(=O)N[C@@H](CCN)C(=O)N[C@@H]([C@@H](C)O)C(=O)N[C@H](CCN)C(=O)N[C@@H](CCCCN)C(=O)N[C@H](C(=O)N[C@@H](CCN)C(=O)N[C@@H](CCCNC(=N)N)C(=O)N[C@@H](CC2CCCCC2)C(=O)O)CSSC1(C)C [Example 20, Pro((4R)NH2)-Val-Pro((4R)NH2)-Ile-Ile-Tyr-Pen-Asn-Arg-Dab-Thr-^DDab-Lys-Cys-Dab-Arg-Cha] (H-[Pro(4R-NH2)]V[Pro(4R-NH2)]IIY[Pen]NR[Dab]T[dDab]KC[Dab]R[Cha]-OH; disulfide 7-14) | ≤0.03125 mg/L | ≤0.03125 mg/L | 0.125 mg/L | 1%
